Measured values published in publication PMC11364775, “Ion occupancy of the selectivity filter controls opening of a cytoplasmic gate in the K2P channel TALK-2” (Nature Communications, 2024).
Where a chain is given by its changes, count along the chain named. Entries after “also recorded” stand apart in the source; their conditions may differ. Each block holds one compound with its values, some of them ahead of it.

Legend:
WT TALK-2 channels [1] = target: T1, WT TALK-2 channels (Homo sapiens, UniProt Q96T54); assay: Pore blocker inhibition (dose-response, residual currents) in inside-out patches at +40 mV; format: cell-based; parameters: expressed in transfected cells; host or cells: Xenopus laevis oocytes (cRNA injection), excised inside-out patches; settings: for blocker inhibition upon activation by 2-APB: 2-APB pre-activated
T1 sequence (Q96T54 1-332): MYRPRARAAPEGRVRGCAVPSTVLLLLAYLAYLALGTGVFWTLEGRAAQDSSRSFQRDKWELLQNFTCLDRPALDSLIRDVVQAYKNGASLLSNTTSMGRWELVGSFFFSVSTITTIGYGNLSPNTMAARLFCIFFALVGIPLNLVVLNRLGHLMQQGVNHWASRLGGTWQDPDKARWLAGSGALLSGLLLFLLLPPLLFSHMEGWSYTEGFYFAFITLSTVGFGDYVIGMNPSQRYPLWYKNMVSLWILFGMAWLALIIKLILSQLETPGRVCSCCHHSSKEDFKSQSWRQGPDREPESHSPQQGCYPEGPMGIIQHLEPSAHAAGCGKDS
Protocol: (§1) Data shown are the mean ± s.e.m and the number (n) of independent experiments and repeats of representative measurements with similar results is indicated in the figure.
(§2) Electrophysiological recordings: Excised patch measurements in inside-out configuration under voltage-clamp conditions were performed at room temperature (22 – 24 °C). Patch pipettes were made from thick-walled borosilicate glass GB 200TF-8P (Science Products, Germany), had resistances of 0.2–0.5 MΩ (tip diameter of 10 - 25 µm) and filled with a pipette solution (in mM): 120 KCl, 10 HEPES and 3.6 CaCl2 (pH 7.0 - 8.5 adjusted with KOH/HCl) or 120 KCl, 10 AMPSO and 3.6 CaCl2 (pH 9.0 - 10.5 adjusted with KOH/HCl). Intracellular bath solutions and compounds were applied to the cytoplasmic side of excised patches for the various K^+ channels via a gravity flow multi-barrel pipette system. Intracellular solution had the following composition (in mM): 120 KCl, 10 HEPES, 2 EGTA and 1 Pyrophosphate (pH adjusted with KOH/HCl). In other intracellular bath solutions, K^+ was replaced by Rb^+ (pH 7.4 adjusted with RbOH/HCl). Currents were recorded with an EPC10 amplifier (HEKA electronics, Germany) and sampled at 10 kHz or higher and filtered with 3 kHz (-3 dB) or higher as appropriate for sampling rate.
(§3) Data analysis and statistics were done using Fitmaster (HEKA electronics, version: v2x73.5, Germany), Microsoft Excel 2021 (Microsoft Corporation, USA), and Igor Pro 9 software (WaveMetrics Inc., USA). Recorded currents were analyzed from stable membrane patches at a voltage defined in the respective figure legend or with a voltage protocol as indicated in the respective figure. […] Percentage inhibition or residual currents upon blocker application for a ligand (drug or bioactive lipid) was calculated from stable currents of excised membrane patches using the following Eqs. 2 and 3:2 %inhibition=1−Iinhibited/Ibasal*100 3 Residual current=100−%inhibition where Iinhibited refers to the stable current level recorded in the presence of a given concentration of a drug or bioactive lipid and Ibasal to the measured current before ligand application.

[2] = target: T2, TALK-2 L264A mutant channels (Homo sapiens, UniProt Q96T54, L264A); assay: as above; format: cell-based; parameters: expressed in transfected cells; host or cells: Xenopus laevis oocytes (cRNA injection), excised inside-out patches; settings: TALK-2 L264A
T2 sequence (Q96T54 1-332 L264A): T1 sequence (Q96T54 1-332) with L264A
Protocol: as §1, §2, §3

[3] = target: T3, WT TALK-2 channels (human K2P17.1) (Homo sapiens, UniProt Q96T54); assay: Inside-out patch-clamp, ligand activation of channel currents at +40 mV (oocytes)
T3 sequence (Q96T54 1-332): T1 sequence (Q96T54 1-332)
Protocol: Oocytes were surgically removed from anesthetized adult females, treated with type II collagenase (Sigma-Aldrich/Merck, Germany) and manually defolliculated. 50 nl of a solution containing the K^+ channel specific cRNA was injected into Dumont stage V - VI oocytes and subsequently incubated at 17 °C in a solution containing (mM): 54 NaCl, 30 KCl, 2.4 NaHCO3, 0.82 MgSO4 x 7 H2O, 0.41 CaCl2, 0.33 Ca(NO3)2 x 4 H2O and 7.5 TRIS (pH 7.4 adjusted with NaOH/HCl) for 1–7 days before use. Electrophysiological recordings: Excised patch measurements in inside-out configuration under voltage-clamp conditions were performed at room temperature (22 – 24 °C). […] Intracellular bath solutions and compounds were applied to the cytoplasmic side of excised patches for the various K^+ channels via a gravity flow multi-barrel pipette system. Intracellular solution had the following composition (in mM): 120 KCl, 10 HEPES, 2 EGTA and 1 Pyrophosphate (pH adjusted with KOH/HCl). In other intracellular bath solutions, K^+ was replaced by Rb^+ (pH 7.4 adjusted with RbOH/HCl). Currents were recorded with an EPC10 amplifier (HEKA electronics, Germany) and sampled at 10 kHz or higher and filtered with 3 kHz (-3 dB) or higher as appropriate for sampling rate.
Recorded currents were analyzed from stable membrane patches at a voltage defined in the respective figure legend or with a voltage protocol as indicated in the respective figure. The fold activation (fold change in (tail) current amplitude) of a ligand (drug or bioactive lipid) was calculated from Eq. 1:1 Fold activationFA=Iactivated/Ibasal where Iactivated represents the stable current level in the presence of a given concentration of a respective ligand and Ibasal the measured current before ligand application. Percentage inhibition or residual currents upon blocker application for a ligand (drug or bioactive lipid) was calculated from stable currents of excised membrane patches using the following Eqs. 2 and 3:2 %inhibition=1−Iinhibited/Ibasal*100 3 Residual current=100−%inhibition where Iinhibited refers to the stable current level recorded in the presence of a given concentration of a drug or bioactive lipid and Ibasal to the measured current before ligand application. The macroscopic half-maximal concentration-inhibition relationship of a ligand was obtained using a Hill-fit for dose-response curves as depicted in Eq. 4:4 %inhibition/activation=Ibase+Imax−Ibase/1+x1/2/x^rate where base and max are the currents in the absence and presence of a respective ligand, x is the concentration of the ligand, x1/2 is the ligand concentration at which the activatory or inhibitory effect is half-maximal, rate is the Hill coefficient.

WT TALK-2 channels [4] = target: T1, WT TALK-2 channels; assay: Cysteine modification assay with MTS-ET, control (inside-out patch); settings: basal state or activated with 2-APB or oleoyl-CoA; 1.0 mM MTS-ET
Protocol: To investigate the latter, we utilized a cysteine modification assay.
Oocytes were surgically removed from anesthetized adult females, treated with type II collagenase (Sigma-Aldrich/Merck, Germany) and manually defolliculated. 50 nl of a solution containing the K^+ channel specific cRNA was injected into Dumont stage V - VI oocytes and subsequently incubated at 17 °C in a solution containing (mM): 54 NaCl, 30 KCl, 2.4 NaHCO3, 0.82 MgSO4 x 7 H2O, 0.41 CaCl2, 0.33 Ca(NO3)2 x 4 H2O and 7.5 TRIS (pH 7.4 adjusted with NaOH/HCl) for 1–7 days before use. Electrophysiological recordings: Excised patch measurements in inside-out configuration under voltage-clamp conditions were performed at room temperature (22 – 24 °C). […] Currents were recorded with an EPC10 amplifier (HEKA electronics, Germany) and sampled at 10 kHz or higher and filtered with 3 kHz (-3 dB) or higher as appropriate for sampling rate.
Data analysis and statistics were done using Fitmaster (HEKA electronics, version: v2x73.5, Germany), Microsoft Excel 2021 (Microsoft Corporation, USA), and Igor Pro 9 software (WaveMetrics Inc., USA). Recorded currents were analyzed from stable membrane patches at a voltage defined in the respective figure legend or with a voltage protocol as indicated in the respective figure.

WT TALK-2 channels [5] = target: T1, WT TALK-2 channels; assay: Tail current deactivation kinetics with pore blocker (inside-out patch); format: cell-based; parameters: expressed in transfected cells; host or cells: Xenopus laevis oocytes (cRNA injection), excised inside-out patches; settings: intracellular Rb+ without blocker; step to +100 mV, repolarization to -80 mV
From the text: In voltage-gated K^+ (Kv) channels, the closing of the lower gate can be prevented by the binding of blockers such as tetra-pentyl-ammonium (TPenA) in the pore cavity and, thereby, causing a slowing of the deactivation kinetics which is known as the ‘foot in the door’ effect[33],[34]. To test for such a mechanism in TALK-2, we activated the channels with a voltage step to +100 mV in the presence of intracellular Rb^+ followed by a repolarization step to -80 mV (to induce tail currents) with and without the K2P channel pore blocker TPenA. […] We hypothesize, that the two gates are strongly coupled and, therefore, opening the SF gate by depolarization should also open the lower gate, which then consequently would allow blocker (like TPenA) binding within the pore cavity (Fig. 5a cartoon). Upon repolarization, however, the bound TPenA blocker obstructs closure of the lower gate and thereby, hinders the SF from closure/inactivation (gate coupling).

[6] = target: T4, WT TREK-2 channels (human K2P10.1) (Homo sapiens, UniProt P57789); assay: as above; format: cell-based; settings: intracellular Rb+ without blocker
T4 construct: expressed in transfected cells; host or cells: Xenopus laevis oocytes (cRNA injection), excised inside-out patches
T4 sequence (P57789 1-538): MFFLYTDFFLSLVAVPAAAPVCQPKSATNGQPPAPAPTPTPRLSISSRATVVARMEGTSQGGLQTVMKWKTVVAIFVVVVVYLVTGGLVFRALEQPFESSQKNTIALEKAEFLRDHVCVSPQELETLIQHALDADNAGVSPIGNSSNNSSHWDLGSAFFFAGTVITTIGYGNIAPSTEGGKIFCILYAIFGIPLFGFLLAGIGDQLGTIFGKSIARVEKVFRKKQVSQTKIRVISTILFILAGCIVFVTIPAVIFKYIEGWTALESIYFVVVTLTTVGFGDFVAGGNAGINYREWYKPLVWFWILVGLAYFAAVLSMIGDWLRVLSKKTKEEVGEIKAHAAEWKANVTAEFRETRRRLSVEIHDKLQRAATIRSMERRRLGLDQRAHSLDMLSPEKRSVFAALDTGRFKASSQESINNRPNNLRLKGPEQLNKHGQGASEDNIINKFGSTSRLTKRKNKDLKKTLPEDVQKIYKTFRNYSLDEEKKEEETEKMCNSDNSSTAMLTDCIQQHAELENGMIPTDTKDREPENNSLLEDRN

blocker inhibition upon activation by 2-APB (WT TALK-2 channels [1]): strong inhibition | Residual currents with 10 µM A1899 (WT TALK-2 channels [1]; TALK-2 WT + 1.0 mM 2-APB): 50.53% | Residual currents with 10 µM A1899 (WT TALK-2 channels [1]; TALK-2 WT): 100.95% | blocker inhibition of unstimulated TALK-2 channels (WT TALK-2 channels [1]): little inhibition | Residual currents with 10 µM A1899 ([2]; 10 µM A1899): 41.55%
Compound: COc1ccc(CC(=O)NCc2ccccc2-c2ccccc2C(=O)NCc2ccc(F)cc2F)cc1 [A1899]

blocker inhibition upon activation by 2-APB (WT TALK-2 channels [1]): strong inhibition | Residual currents with 50 µM AVE0118 (WT TALK-2 channels [1]; TALK-2 WT + 1.0 mM 2-APB): 12.33% | Residual currents with 50 µM AVE0118 (WT TALK-2 channels [1]; TALK-2 WT): 96.7% | blocker inhibition of unstimulated TALK-2 channels (WT TALK-2 channels [1]): little inhibition | Residual currents with 50 µM AVE0118 ([2]; 50 µM AVE0118): 14.56%
Compound: COc1ccc(CC(=O)NCc2ccccc2-c2ccccc2C(=O)NCCc2cccnc2)cc1 [AVE0118]

activation of TALK-2 channels by BL-1249 ([3]; 50 µM BL-1249, +40 mV): robust and reversible channel activation | Fold activation 50 µM BL-1249 ([3]; 50 µM, TALK-2 WT): 72.38 fold
Compound: c1ccc(-c2nn[nH]n2)c(Nc2cccc3c2CCCC3)c1 [BL-1249]

Compound: C[N+](C)(C)CCSS(C)(=O)=O.[Cl-] [MTS-ET]
effect of MTS-ET on WT TALK-2 currents (WT TALK-2 channels [4]): almost no effect; also recorded: insensitive

Fold Rb+ activation ([3]; TALK-2 WT): 9.12 fold | deactivation time constant τ of tail currents (WT TALK-2 channels [5]): 3.0 ± 0.2 ms | deactivation time constant τ of tail currents [6]: 17.5 ± 1.7 ms
Compound: [Rb+] [Rb^+]

blocker inhibition upon activation by 2-APB (WT TALK-2 channels [1]): strong inhibition | Residual currents with 50 µM S9947 (WT TALK-2 channels [1]; TALK-2 WT + 1.0 mM 2-APB): 6.15% | Residual currents with 50 µM S9947 (WT TALK-2 channels [1]; TALK-2 WT): 98.48% | blocker inhibition of unstimulated TALK-2 channels (WT TALK-2 channels [1]): little inhibition | Residual currents with 50 µM S9947 ([2]; 50 µM S9947): 41.47%
Compound: O=C(NCc1ccccc1-c1ccccc1C(=O)NCCc1ccccn1)OCc1ccccc1 [S9947]
